According to paper PMC10714828, “Proteomic analysis of anti-MRSA activity of caerin 1.1/1.9 in a murine skin infection model and their in vitro anti-biofilm effects against Acinetobacter baumannii” (Microbiology Spectrum, 2023):
Where two headings read alike, the source gives them in different places.

What was measured:
[1] = pH 5.5; cited from earlier work
[2] = tested on: A. baumannii (GDM1.609); assay: MIC by micro-broth dilution (CLSI); assay type: cell-based, Acinetobacter baumannii; details: Fig. 1D; for inhibitory activity on A. baumannii (in words): MIC test; for MIC: micro-broth dilution, 37°C, 24 h, OD 600 nm, three replicates
Protocol: (§1) The MIC of F3 against different bacteria were measured by using a micro-broth dilution method developed by the Clinical and Laboratory Standards Institute ([33]). Briefly, the bacterial suspension with absorbance ranging from 0.08 to 0.10 was prepared and 100 µL of the bacterial suspension to a 96 U-shaped well culture plate. The dalbavancin HCl and sodium fusidate were prepared into 328 µM, polymyxin B was prepared at 840.7 µM with phosphate-buffered saline (PBS). Concentrations of F1 and F3 and of F-K were diluted to […] and 479.8 μM, and they were added into 96-well plates with concentration gradients of 310.5, 155.2, 77.6, 38.8, 19.4, 9.7, and 4.9 µM, respectively, with three replicates for each concentration, the equivalent volume of PBS was added as a growth control. The bacteria were cultured at 37°C for 24 h. The optical density (OD) value at 600 nm was measured with a MULTISKAN GO microplate spectrophotometer.

[3] = tested on: E. coli (GDM1.176); assay: MIC by micro-broth dilution (CLSI); assay type: cell-based, Escherichia coli; details: for inhibition of E. coli growth (in words): MIC test, Fig. 1E
Protocol: as §1

[4] = tested on: P. aeruginosa (GDM1.443); assay: MIC by micro-broth dilution (CLSI); assay type: cell-based,  Pseudomonas aeruginosa; details: Fig. 1F; for inhibition of P. aeruginosa growth (in words): MIC test
Protocol: as §1

[5] = tested on: bacteria; details: after repeatedly in vitro culture; cited from earlier work
Text: Moreover, caerin 1.1 has an additive antibacterial effect when used together with caerin 1.9. Caerin 1.1 and caerin 1.9 prepared in the form of a temperature-sensitive gel inhibit MRSA growth in a skin bacterial infecti ...

Compound | stability at pH and temperature [1] | inhibitory activity on A. baumannii (in words) [2] | MIC [2] | inhibition of E. coli growth (in words) [3] | inhibition of P. aeruginosa growth (in words) [4] | MIC ([2]; Acinetobacter baumannii, read-out: MIC) | MIC ([3]; Escherichia coli, 24 h) | MIC ([4]; Pseudomonas aeruginosa, micro-broth dilution, 37°C, 24 h, OD 600 nm, three replicates) | induction of bacterial resistance [5]
GLLSVLGSVAKHVLPHVVPVIAEHL-NH2 [F1, host defense peptide caerin 1.1, originally isolated from the Australian tree frog, synthesized] | stable at low pH (5.5–7.4) and room temperature | comparable inhibition | around 5 μM | suppression of the growth of E. coli and P. aeruginosa at high concentrations | suppression of the growth of E. coli and P. aeruginosa at high concentrations | – | – | – | –
PLLLLLPSLLTATL-NH2 [F-K, positive control antimicrobial peptide] | – | comparable inhibition | – | the best at inhibiting these two strains of bacteria | the best at inhibiting these two strains of bacteria | – | – | – | –
CC(=O)O[C@H]1C[C@@]2(C)[C@@H](C[C@@H](O)[C@H]3[C@@]4(C)CC[C@@H](O)[C@@H](C)[C@@H]4CC[C@@]32C)/C1=C(\CCC=C(C)C)C(=O)O [Sodium Fusidate, Sodium fusidate] | – | no inhibitory activity | – | incapable of stopping these bacterial growth | incapable of stopping these bacterial growth | 19.7 µM | 78.7 µM | 78.7 µM | –
CN[C@H]1C(=O)N[C@@H]2Cc3ccc(cc3)Oc3cc4cc(c3O[C@@H]3O[C@H](C(=O)O)[C@@H](O)[C@H](O)[C@H]3NC(=O)CCCCCCCCC(C)C)Oc3ccc(cc3Cl)[C@@H](O)[C@@H]3NC(=O)[C@H](NC(=O)[C@@H]4NC(=O)[C@@H](NC2=O)c2cc(cc(O)c2Cl)Oc2cc1ccc2O)c1ccc(O)c(c1)-c1c(O[C@H]2O[C@H](CO)[C@@H](O)[C@H](O)[C@@H]2O)cc(O)cc1[C@@H](C(=O)NCCCN(C)C)NC3=O [Dalbavancin, dalbavancin] | – | no inhibitory activity | – | incapable of stopping these bacterial growth | incapable of stopping these bacterial growth | – | – | – | –
GLFGVLGSIAKHVLPHVVPVIAEKL-NH2 [F3, host defense peptide caerin 1.9, originally isolated from the Australian tree frog, synthesized] | stable at low pH (5.5–7.4) and room temperature | comparable inhibition | around 5 μM | suppression of the growth of E. coli and P. aeruginosa at high concentrations | suppression of the growth of E. coli and P. aeruginosa at high concentrations | – | – | – | did not induce bacterial resistance
